Laboratory results reported in PubChem BioAssay (NCI).
Where “and” joins values, the source holds several entries; their conditions need not be identical. Equal values may be shown once.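 Exposure lasted 48 hours, with cells grown in 96-well plates and compounds tested at five concentrations. Here, GI50 denotes the concentration required for 50% inhibition of growth. The concentration for full growth arrest is given as TGI.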

Assays:
Experiment in all cases: NCI-60 cell line screen, 48 h
HCT-15 colon = system: HCT-15 colon
K-562 leukemia = system: K-562 leukemia
MCF7 breast = system: MCF7 breast
NCI-H23 lung = system: NCI-H23 lung
SF-539 CNS = system: SF-539 CNS
SK-MEL-5 melanoma = system: SK-MEL-5 melanoma
SN12C renal = system: SN12C renal
SNB-19 CNS = system: SNB-19 CNS
UO-31 renal = system: UO-31 renal
MALME-3M melanoma = system: MALME-3M melanoma

SMILES | GI50 (HCT-15 colon) | TGI (K-562 leukemia) | GI50 (MCF7 breast) | TGI (MCF7 breast) | GI50 (NCI-H23 lung) | TGI (NCI-H23 lung) | GI50 (SF-539 CNS) | TGI (SF-539 CNS) | GI50 (SK-MEL-5 melanoma) | TGI (SK-MEL-5 melanoma) | GI50 (SN12C renal) | TGI (SN12C renal) | GI50 (SNB-19 CNS) | TGI (SNB-19 CNS) | GI50 (UO-31 renal) | TGI (UO-31 renal) | TGI (HCT-15 colon) | GI50 (K-562 leukemia) | GI50 (MALME-3M melanoma) | TGI (MALME-3M melanoma)
COc1ccc(/C(COc2ccc3oc(-c4ccccc4)cc(=O)c3c2)=N\O)cc1 | 26.4 nM | > 33.3 µM | < 5 nM | 11.6 µM | 0.189 µM | 9.75 µM | 1250 nM | 2.72 µM | 0.93 µM | 7.98 µM | 231 nM | 4.54 µM | 8.57 µM | > 36.5 µM | 1600 nM | > 50 µM |  |  |  | 
CC1CC[P+](c2ccccc2)(c2ccccc2)c2c1ccc1ccccc21 (stereo unspecified) |  | 17.8 µM |  | > 100 µM |  | 9.78 µM |  | 35.8 µM |  | 5.16 µM |  | 37.1 µM |  | 97.4 µM |  | > 68.3 µM | > 100 µM |  |  | 
CCCCCCCCCCCCCCCCCCn1cc[n+](C)c1 | 689 nM and 888 nM | > 100 µM | 513 nM and 1000 nM | 1.79 µM and 2.35 µM |  |  | 1060 nM | 2.4 µM |  |  | 1070 nM and 826 nM | 2.47 µM and 2.3 µM | 1.22 µM and 1.18 µM | 3.57 µM and 2.42 µM | 1030 nM | 2.41 µM | 2 µM and 2.34 µM | 385 nM and 312 nM |  | 
COc1ccc(-c2nc(-c3ccc(C)cc3)cn3ccnc23)cc1 | 2560 nM | 3.92 µM | 3050 nM | > 50 µM | > 50 µM | > 50 µM | 5730 nM | 31 µM | 1.68 µM | 5.2 µM | 6120 nM | > 50 µM | 13.8 µM | > 50 µM | 12000 nM | > 50 µM | > 50 µM | 815 nM |  | 
Cc1csc2[n+]1-c1ccccc1N(C(=O)Nc1ccccc1)C(C)C2 (stereo unspecified) | > 100000 nM | > 100 µM | 48700 nM | > 100 µM | 35.8 µM | > 100 µM |  |  | 42.6 µM | > 100 µM | > 100000 nM | > 100 µM | > 100 µM | > 100 µM | > 100000 nM | > 100 µM | > 100 µM | > 100000 nM |  | 
O=S(=O)(NNc1ccccc1)c1ccccc1 |  | 39.5 µM |  | 28.8 µM |  | > 100 µM |  | > 100 µM |  | 12.7 µM |  | 18.7 µM |  | > 100 µM |  | 25.7 µM | > 100 µM |  |  | 
C[CH2][Ge]([CH2]C)([CH2]C)[O]C(=O)C(OC(C)=O)c1ccccc1 (stereo unspecified) | > 100000 nM | > 100 µM |  |  | > 100 µM | > 100 µM | > 100000 nM | > 100 µM | 71.6 µM | > 100 µM | > 100000 nM | > 100 µM | > 100 µM | > 100 µM | > 100000 nM | > 100 µM | > 100 µM | > 100000 nM | > 100 µM | > 100 µM
ClC/C=C/COC1CCCCO1 (stereo unspecified) |  | > 100 µM |  |  |  | > 100 µM |  | > 100 µM |  | > 100 µM |  | > 100 µM |  | > 100 µM |  | > 100 µM | > 100 µM |  |  | > 100 µM
COC(=O)N/N=C(\C)c1c(O)cc(C)oc1=O |  | 97.7 µM |  |  |  | > 100 µM |  | 58 µM |  | > 100 µM |  | > 100 µM |  | > 100 µM |  | > 100 µM | > 100 µM |  |  | > 100 µM
O=C1CC(c2cccc(F)c2)Nc2cc3c(cc21)OCO3 (stereo unspecified) | < 10 nM | > 100 µM | < 10 nM | > 100 µM |  |  | < 10 nM |  | < 0.01 µM | < 0.01 µM | 207 nM | > 100 µM |  | 3.12 µM | < 10 nM | > 100 µM | > 100 µM |  |  | 
O=C(/C=C/c1ccccc1F)c1ccc(Cl)c(Cl)c1 |  | 48.4 µM |  |  |  | 24 µM |  | > 100 µM |  | > 84.1 µM |  | 98.5 µM |  | > 100 µM |  | > 100 µM | > 87 µM |  |  | > 100 µM
COc1cc(/C=C/C(=O)/C=C/c2ccc(-n3ccnc3C)cc2)ccc1O | 2600 nM | > 100 µM |  |  | 2.08 µM | 5.5 µM | 2190 nM | 5.53 µM | 3.25 µM | 11.9 µM | 2360 nM | 6.63 µM | 4.62 µM | 86.3 µM | 1510 nM | 3.15 µM | 8.47 µM | 3320 nM | 4.63 µM | 30.5 µM
CC1=C(C(=O)Nc2ccccc2)C(c2cccc3ccccc23)C(C(=O)Nc2ccccc2)=C(C)N1 |  | 72.5 µM |  |  |  | 52.5 µM |  | 37.9 µM |  | 33.4 µM |  | 33.3 µM |  | 72.5 µM |  | 52.8 µM | 30.5 µM |  |  | 37.4 µM
O=C(O)[C@H](NS(=O)(=O)c1ccc(F)cc1)c1ccccc1 |  | > 100 µM |  |  |  | > 100 µM |  | > 100 µM |  | > 100 µM |  | > 100 µM |  | > 100 µM |  | > 100 µM | > 100 µM |  |  | > 100 µM
